Test results from ChEMBL document CHEMBL3997849, “Modulation of the Inhibitors of Apoptosis Proteins (IAPs) Activities for Cancer Treatment” (ACS Med Chem Lett, 2017).

How the values were obtained:
[1] = Inhibition of His-tagged XIAP BIR2-3 (125 to 356 residues) C202A/C213G double mutant (unknown origin) using fluorescein labeled SMAC peptide as substrate after 60 mins by HTRF assay; set-up: species or system Homo sapiens
[2] = target: E3 ubiquitin-protein ligase XIAP (Homo sapiens, UniProt P98170); assay: Inhibition of His-tagged XIAP BIR3 (241 to 356 residues) (unknown origin) using fluorescein labeled SMAC peptide as substrate after 60 mins by HTRF assay
Sequence of E3 ubiquitin-protein ligase XIAP (P98170 whole entry, the tested form may be a part): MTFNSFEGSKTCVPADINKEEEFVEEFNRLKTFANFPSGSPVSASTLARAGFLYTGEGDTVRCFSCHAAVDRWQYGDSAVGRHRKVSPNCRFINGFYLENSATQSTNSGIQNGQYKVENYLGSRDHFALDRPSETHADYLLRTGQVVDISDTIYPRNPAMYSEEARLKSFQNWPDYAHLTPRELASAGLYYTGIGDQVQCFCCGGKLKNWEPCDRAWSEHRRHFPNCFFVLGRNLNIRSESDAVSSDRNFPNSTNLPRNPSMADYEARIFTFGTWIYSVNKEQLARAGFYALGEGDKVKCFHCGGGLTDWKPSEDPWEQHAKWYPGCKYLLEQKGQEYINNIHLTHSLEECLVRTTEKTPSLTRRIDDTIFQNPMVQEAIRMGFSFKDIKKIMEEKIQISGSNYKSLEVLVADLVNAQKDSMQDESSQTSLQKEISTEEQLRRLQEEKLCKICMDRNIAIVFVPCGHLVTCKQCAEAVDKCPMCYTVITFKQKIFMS

IC50 [1] [nM] | IC50 [2] [nM] | Compound
9.5 | 119 | CN[C@@H](C)C(=O)N[C@H](C(=O)NC(Cc1ccc(NC(=O)c2ccc(C(=O)NC3C[C@@H](C(=O)N[C@@H]4CCCc5ccccc54)N(C(=O)[C@@H](NC(=O)[C@H](C)NC)C(C)(C)C)C3)cc2)cc1)C(=O)N[C@@H]1CCCc2ccccc21)C(C)(C)C (stereo partly specified)
12.3 |  | CN[C@@H](C)C(=O)N[C@H](C(=O)N1C[C@@H](c2ccc(C[C@H](NC(=O)[C@@H](NC(=O)[C@H](C)NC)C(C)(C)SCC(=O)N(C)C[C@@H](O)CO)C(=O)N[C@@H]3CCCc4ccccc43)cc2)C[C@H]1C(=O)N[C@@H]1CCCc2ccccc21)C(C)(C)C
6.8 |  | CN[C@@H](C)C(=O)N[C@H](C(=O)N[C@@H](Cc1ccc([C@H]2C[C@@H](C(=O)N[C@@H]3CCCc4ccccc43)N(C(=O)[C@@H](NC(=O)[C@H](C)NC)C(C)(C)C)C2)cc1)C(=O)N[C@@H]1CCCc2ccccc21)C(C)(C)C
8.1 | 1.4 | CN[C@@H](C)C(=O)N[C@H](C(=O)N1C[C@@H](c2ccc(CC(NC(=O)[C@@H](NC(=O)[C@H](C)NC)C(C)(C)SCC(=O)NC(CO)CO)C(=O)N[C@@H]3CCCc4ccccc43)cc2)C[C@H]1C(=O)N[C@@H]1CCCc2ccccc21)C(C)(C)C (stereo partly specified)
